Test results as given in US8648066B2 (Exelixis, Inc., priority 2009, dated 2014).

Molecular target: mTOR/GbL/Raptor (mTORC1) (Homo sapiens, UniProt P42345)
Assay: mTOR/GbL/Raptor (mTORC1) ELISA assay
Assay type: biochemical
Settings: phosphorylation of 4E-BP1; 0.2 nM mTORC1, 10 μM ATP; read-out: IC50 in this assay (mTORC1 ELISA)
Protocol: The measurement of mTORC1 enzyme activity was performed in an ELISA assay format following the phosphorylation of 4E-BP1 protein. All experiments were performed in the 384-well format. Generally, 0.5 μL DMSO containing varying concentrations of the test Compound was mixed with 15 μL enzyme solution. Kinase reactions were initiated with the addition of 15 μL of substrates-containing solution. The assay conditions were as follows; 0.2 nM mTORC1, 10 μM ATP and 50 nM NHis-tagged 4E-BP1 in 20 mM Hepes, pH 7.2, 1 mM DTT, 50 mM NaCl, 10 mM MnCl2, 0.02 mg/mL BSA, 0.01% CHAPS, 50 mM β-glycerophosphate. Following an incubation of 120 minutes at ambient temperature, 20 μL of the reaction volume was transferred to a Ni-Chelate-coated 384-well plate. The binding step of the 4E-BP1 protein proceeded for 60 minutes, followed by washing 4 times each with 50 μL of Tris-buffered saline solution (TBS). Anti-phospho-4E-BP1 rabbit-IgG (20 μL, 1:5000) in 5% BSA-TBST (0.2% Tween-20 in TBS) was added and further incubated for 60 minutes. Incubation with a secondary HRP-tagged anti-IgG was similarly performed after washing off the primary antibody (4 washes of 50 μL). Following the final wash step with TBST, 20 μL of SuperSignal ELISA Femto (Pierce Biotechnology) was added and the luminescence measured using an EnVision plate reader.

SMILES | IC50 [nM]
COc1cc2c(N3CCOc4ccc(-c5ccc6nc(C)[nH]c6c5)cc4C3)ncnc2cc1OCc1ccccc1 [Example 10] | 250 to 1000
COc1cc2c(N3CCOc4ccc(-c5ccc6nc(C)[nH]c6c5)cc4C3)ncnc2cc1Br [Example 31, 4-[7-bromo-6-(methyloxy)quinazolin-4-yl]-7-(2-methyl-1H-benzimidazol-6-yl)-2,3,4,5-tetrahydro-1,4-benzoxazepine] | 250 to 1000
COc1ccc2nc(Cl)nc(N3CCOc4ccc(-c5ccc6nc(C)[nH]c6c5)cc4C3)c2c1 [Example 33, 4-[2-chloro-6-(methyloxy)quinazolin-4-yl]-7-(2-methyl-1H-benzimidazol-6-yl)-2,3,4,5-tetrahydro-1,4-benzoxazepine] | 250 to 1000
Cc1nc2ccc(-c3ccc4c(c3)CN(c3ncnc5cc(S(C)(=O)=O)ccc35)CCO4)cc2[nH]1 [Example 40, 7-(2-methyl-1H-benzimidazol-6-yl)-4-[7-(methylsulfonyl)quinazolin-4-yl]-2,3,4,5-tetrahydro-1,4-benzoxazepine] | 50 to 250
COc1c(Cl)cc2c(N3CCOc4ccc(-c5ccc6nc(C)[nH]c6c5)cc4C3)ncnc2c1OC [Example 42, 4-[6-chloro-7,8-bis(methyloxy)quinazolin-4-yl]-7-(2-methyl-1H-benzimidazol-6-yl)-2,3,4,5-tetrahydro-1,4-benzoxazepine] | 250 to 1000
COc1cc2ncnc(N3CCOc4ccc(-c5ccc6nc(C)[nH]c6c5)cc4C3)c2cc1Br [Example 43, 4-[6-bromo-7-(methyloxy)quinazlolin-4-yl]-7-(2-methyl-1H-benzimidazol-6-yl)-2,3,4,5-tetrahydro-1,4-benzoxazepine] | 50 to 250
Cc1nc2ccc(-c3ccc4c(c3)CN(c3ncncc3C)CCO4)cc2[nH]1 [Example 44, 7-(2-methyl-1H-benzimidazol-6-yl)-4-(5-methylpyrimidin-4-yl)-2,3,4,5-tetrahydro-1,4-benzoxazepine] | 1000 to 2000
Cc1nc2ccc(-c3ccc4c(c3)CN(c3ncnc5sccc35)CCO4)cc2[nH]1 [Example 45, 7-(2-methyl-1H-benzimidazol-6-yl)-4-thieno[2,3-d]pyrimidin-4-yl-2,3,4,5-tetrahydro-1,4-benzoxazepine] | 250 to 1000
Cc1nc2ccc(-c3ccc4c(c3)CN(c3ncnc5c3CCCC5)CCO4)cc2[nH]1 [Example 46, 7-(2-methyl-1H-benzimidazol-6-yl)-4-(5,6,7,8-tetrahydroquinazolin-4-yl)-2,3,4,5-tetrahydro-1,4-benzoxazepine] | 250 to 1000
Cc1nc2ccc(-c3ccc4c(c3)CN(c3ncnc5scc(C)c35)CCO4)cc2[nH]1 [Example 47, 7-(2-methyl-1H-benzimidazol-6-yl)-4-(5-methylthieno[2,3-d]pyrimidin-4-yl)-2,3,4,5-tetrahydro-1,4-benzoxazepine] | ≥ 2000
Cc1nc2ccc(-c3ccc4c(c3)CN(c3ncnc(C)c3C)CCO4)cc2[nH]1 [Example 48, 4-(5,6-dimethylpyrimidin-4-yl)-7-(2-methyl-1H-benimidazol-6-yl)-2,3,4,5-tetrahydro-1,4-benzoxazepine] | 1000 to 2000
CSc1nc2c(c(N3CCOc4ccc(-c5ccc6nc(C)[nH]c6c5)cc4C3)n1)CCC2 [Example 49, 7-(2-methyl-1H-benzimidazol-6-yl)-4-[2-(methylthio)-6,7-dihydro-5H-cyclopenta[d]pyrimidin-4-yl]-2,3,4,5-tetrahydro-1,4-benzoxazepine] | 50 to 250
Cc1nc2ccc(-c3ccc4c(c3)CN(c3ncnc5ccc(S(C)(=O)=O)cc35)CCO4)cc2[nH]1 [Example 50, 7-(2-methyl-1H-benzimidazol-6-yl)-4-[6-(methylsulfonyl)quinazolin-4-yl]-2,3,4,5-tetrahydro-1,4-benzoxazepine] | 250 to 1000
Cc1nc2ccc(-c3ccc4c(c3)CN(c3ncnc5c(C#N)c6n(c35)CCCC6)CCO4)cc2[nH]1 [Example 51, 4-[7-(2-methyl-1H-benzimidazol-6-yl)-2,3-dihydro-1,4-benzoxazepin-4(5H)-yl]-6,7,8,9-tetrahydropyrimido[4,5-b]indolizine-10-carbonitrile] | 250 to 1000
CCSc1nc2c(c(N3CCOc4ccc(-c5ccc6nc(C)[nH]c6c5)cc4C3)n1)CCC2 [Example 54, 4-[2-(ethylthio)-6,7-dihydro-5H-cyclopenta[d]pyrimidin-4-yl]-7-(2-methyl-1H-benzimidazol-6-yl)-2,3,4,5-tetrahydro-1,4-benzoxazepine] | 250 to 1000
CCc1ncnc(N2CCOc3ccc(-c4ccc5nc(C)[nH]c5c4)cc3C2)c1C [Example 56, 4-(6-ethyl-5-methylpyrimidin-4-yl)-7-(2-methyl-1H-benzimidazol-6-yl)-2,3,4,5-tetrahydro-1,4-benzoxazepine] | 250 to 1000

More lines, now with the values ahead:

IC50 [nM] | SMILES
50 to 250 | Cc1nc2ccc(-c3ccc4c(c3)CN(c3ncnc5c(Cl)cc(Cl)cc35)CCO4)cc2[nH]1 [Example 32, 4-(6,8-dichloroquinazolin-4-yl)-7-(2-methyl-1H-benzimidazol-6-yl)-2,3,4,5-tetrahydro-1,4-benzoxazepine]
50 to 250 | COc1ccc2c(N3CCOc4ccc(-c5ccc6nc(C)[nH]c6c5)cc4C3)ncnc2c1OC [Example 34, 4-[7,8-bis(methyloxy)quinazolin-4-yl]-7-(2-methyl-1H-benzimidazol-6-yl)-2,3,4,5-tetrahydro-1,4-benzoxazepine]
50 to 250 | Cc1nc2ccc(-c3ccc4c(c3)CN(c3ncnc5cc(Cl)c(I)cc35)CCO4)cc2[nH]1 [Example 35, 4-(7-chloro-6-iodoquinazolin-4-yl)-7-(2-methyl-1H-benzimidazol-6-yl)-2,3,4,5-tetrahydro-1,4-benzoxazepine]
50 to 250 | Cc1nc2ccc(-c3ccc4c(c3)CN(c3ncnc5cc(C(F)(F)F)ccc35)CCO4)cc2[nH]1 [Example 36, 7-(2-methyl-1H-benzimidazol-6-yl)-4-[7-(trifluoromethyl)quinazolin-4-yl]-2,3,4,5-tetrahydro-1,4-benzoxazepine]
10 to 50 | COc1cc2ncnc(N3CCOc4ccc(-c5ccc6nc(C)[nH]c6c5)cc4C3)c2cc1I [Example 37, 4-[6-iodo-7-(methyloxy)quinazolin-4-yl]-7-(2-methyl-1H-benzimidazol-6-yl)-2,3,4,5-tetrahydro-1,4-benzoxazepine]
10 to 50 | COc1cc2ncnc(N3CCOc4ccc(-c5ccc6nc(C)[nH]c6c5)cc4C3)c2cc1Cl [Example 38, 4-[6-chloro-7-(methyloxy)quinazolin-4-yl]-7-(2-methyl-1H-benzimidazol-6-yl)-2,3,4,5-tetrahydro-1,4-benzoxazepine]
50 to 250 | COc1c(OCc2ccccc2)ccc2c(N3CCOc4ccc(-c5ccc6nc(C)[nH]c6c5)cc4C3)ncnc12 [Example 39, 7-(2-methyl-1H-benzimidazol-6-yl)-4-{8-(methyloxy)-7-[(phenylmethyl)oxy]quinazolin-4-yl}-2,3,4,5-tetrahydro-1,4-benzoxazepine]
≤ 10 | Cc1nc2ccc(-c3ccc4c(c3)CN(c3ncnc(C)c3Cc3ccccc3)CCO4)cc2[nH]1 [Example 55, 7-(2-methyl-1H-benzimidazol-6-yl)-4-[6-methyl-5-(phenylmethyl)pyrimidin-4-yl]-2,3,4,5-tetrahydro-1,4-benzoxazepine]
